Test results from ChEMBL document CHEMBL3616443, “Synthesis and biological evaluation of ring A and/or C expansion and opening echinocystic acid derivatives for anti-HCV entry inhibitors” (2015).
Active and inactive are the calls of the source. The calls are words filed in the database; no cut-off is given here.

Legend:
Hepatitis C virus [1] = assay: Antiviral activity against HCV psuedoparticles infected in human Huh7 cells assessed as inhibition of virus entry at 1 to 5 uM using Bright Glo reagent after 72 hrs by Luciferase reporter gene assay; assay type: functional, Hepacivirus hominis, Huh-7; design: scale not given: the % may be the effect or the level left
Hepatitis C virus [2] = assay: Antiviral activity against HCV psuedoparticles infected in human Huh7 cells assessed as inhibition of virus entry at 10 uM using Bright Glo reagent after 72 hrs by Luciferase reporter gene assay; assay type: functional, Hepacivirus hominis, Huh-7; design: scale not given: the % may be the effect or the level left
[3] = system: Vesicular stomatitis virus; assay: Antiviral activity against VSV psuedoparticles infected in human Huh7 cells assessed as inhibition of virus entry at 1 to 5 uM using Bright Glo reagent after 72 hrs by Luciferase reporter gene assay; assay type: functional, organism-based; conditions: Huh-7

| SMILES | Activity (Hepatitis C virus [1]) [%] | Activity (Hepatitis C virus [2]) [%] | Activity (Hepatitis C virus [1]; Hepacivirus hominis, Huh-7) | Activity [3] |
| --- | --- | --- | --- | --- |
| CC1(C)CC[C@]2(C(=O)O)[C@H](O)C[C@]3(C)C(=CC[C@@H]4[C@@]5(C)CC[C@H](O)C(C)(C)[C@@H]5CC[C@]43C)[C@H]2C1 [ECHINOCYSTIC ACID] | 90 | – | – | – |
| C[C@H]1[C@H](C)CC[C@]2(C(=O)O)CC[C@]3(C)C(=CC[C@@H]4[C@@]5(C)CC[C@H](O)C(C)(C)[C@@H]5CC[C@]43C)[C@H]12 [URSOLIC ACID] | – | 30 | – | – |
| CC1(C)CC[C@]2(C(=O)O)[C@H](O)C[C@]3(C)[C@H](C(=O)OC[C@@H]4[C@@](C)(CCC(=O)O)[C@H](C(C)(C)O)CC[C@]43C)[C@@H]2C1 | – | – | Active | inactive |
| CC1(C)CC[C@]2(CO)[C@H](O)C[C@@](C)([C@]3(C)CC[C@H]4C(C)(C)[C@@H](O)CC[C@]4(C)C3CCO)C(O)[C@@H]2C1 (stereo not given in full) | – | – | Active | inactive |
| CC1(C)CC[C@]2(C(=O)O)[C@H](O)C[C@]3(C)[C@H](C(=O)OC[C@@H]4[C@@]5(C)CC[C@H](O)C(C)(C)[C@@H]5CC[C@]43C)[C@@H]2C1 | – | – | Active | inactive |
| CC1(C)CC[C@]2(C(=O)O)[C@H](O)C[C@]3(C)[C@H](C(=O)C=C4[C@@]5(C)CC[C@H](O)C(C)(C)[C@@H]5CC[C@]43C)[C@@H]2C1 | – | – | Active | inactive |
| CC1(C)[C@@H](O)CC[C@]2(C)[C@H]3C(=O)C=C4[C@@H]5C[C@@](C)(C(=O)O)CC[C@]5(C)CC[C@@]4(C)[C@]3(C)CC[C@@H]12 [ENOXOLONE] | – | 5 | – | – |
| COC(=O)[C@]12CCC(C)(C)C[C@H]1[C@H]1OC(=O)C[C@@H]3[C@@]4(C)CC[C@H](O)C(C)(C)[C@@H]4CC[C@@]3(C)[C@]1(C)C[C@H]2O | – | – | Active | inactive |
| CC1(C)CC[C@]2(C(=O)O)[C@H](O)C[C@]3(C)[C@H](OC(=O)C[C@@H]4[C@@](C)(CCC(=O)O)[C@H](C(C)(C)O)CC[C@]43C)[C@@H]2C1 | – | – | Active | inactive |
| CC1(C)CC[C@]2(C(=O)O)[C@H](O)C[C@]3(C)[C@H](OC(=O)C[C@@H]4[C@@]5(C)CC[C@H](O)C(C)(C)[C@@H]5CC[C@]43C)[C@@H]2C1 | – | – | Active | inactive |
| CC1(C)CC[C@]2(C(=O)O)[C@H](O)C[C@]3(C)[C@H](C(=O)OC[C@@H]4[C@@]5(C)CCC(=O)OC(C)(C)[C@@H]5CC[C@]43C)[C@@H]2C1 | – | – | Active | inactive |
| CC1(C)CC[C@]2(C(=O)O)[C@H](O)C[C@]3(C)[C@H](C(=O)C[C@@H]4[C@@]5(C)CCC(=O)OC(C)(C)[C@@H]5CC[C@]43C)[C@@H]2C1 | – | – | Active | inactive |
| CC1(C)CC[C@]2(C(=O)O)[C@H](O)C[C@]3(C)[C@H](C(=O)C[C@@H]4[C@@](C)(CCC(=O)O)[C@H](C(C)(C)O)CC[C@]43C)[C@@H]2C1 | – | – | Active | inactive |
| CC1(C)CC[C@]2(C(=O)O)[C@H](O)C[C@]3(C)[C@H](OC(=O)C[C@@H]4[C@@]5(C)CCC(=O)OC(C)(C)[C@@H]5CC[C@]43C)[C@@H]2C1 | – | – | Active | inactive |
| COC(=O)[C@]12CCC(C)(C)C[C@H]1[C@H]1C(=O)OC[C@@H]3[C@@]4(C)CC[C@H](O)C(C)(C)[C@@H]4CC[C@@]3(C)[C@]1(C)C[C@H]2O | – | – | Active | inactive |
| C=C(C)[C@@H]1CC[C@]2(C(=O)O)CC[C@]3(C)[C@H](CC[C@@H]4[C@@]5(C)CC[C@H](O)C(C)(C)[C@@H]5CC[C@]43C)[C@@H]12 [BETULINIC ACID] | – | 75 | – | – |
| CC1(C)CC[C@]2(CO)[C@H](O)C[C@]3(C)[C@H](C(O)C[C@@H]4[C@@](C)(CCCO)[C@H](C(C)(C)O)CC[C@]43C)[C@@H]2C1 (stereo not given in full) | – | – | Active | inactive |
